Measured values reported in the NIST ThermoML archive (doi:10.1007/s10765-009-0579-1).
Numbers after ± are expanded uncertainties.

Assay: xn = mol fraction of the nth substance listed
Conditions: Gas; for viscosity: Oscillating disk viscometry; for mass density: Pycnometric method

CC(F)(F)Cl [1-chloro-1,1-difluoroethane] + FC(F)Cl
Conditions | mass density [kg/m3] | viscosity [mPa·s]
298.15 K, 101.5 kPa, x2 = 0.5169 | 3.896 ± 0.21 | 0.01164 ± 0.00043
298.15 K, 101.7 kPa, x2 = 0.7502 | 3.754 ± 0.21 | 0.01219 ± 0.00044
298.15 K, 101.8 kPa, x2 = 0.2615 | 4.07 ± 0.21 | 0.01109 ± 0.00041
298.15 K, 177.1 kPa, x2 = 0.5169 | 6.906 ± 0.21 | 0.01163 ± 0.00043
298.15 K, 198 kPa, x2 = 0.7502 | 7.44 ± 0.21 | 0.01217 ± 0.00044
298.15 K, 205.6 kPa, x2 = 0.2615 | 8.45 ± 0.21 | 0.01104 ± 0.00041
298.15 K, 248.7 kPa, x2 = 0.5169 | 9.867 ± 0.21 | 0.0116 ± 0.00042
298.15 K, 291.6 kPa, x2 = 0.7502 | 11.16 ± 0.21 | 0.01212 ± 0.00044
298.15 K, 299.2 kPa, x2 = 0.2615 | 12.59 ± 0.21 | 0.01102 ± 0.00041
298.15 K, 323.9 kPa, x2 = 0.5169 | 13.12 ± 0.21 | 0.01159 ± 0.00042
298.15 K, 357.3 kPa, x2 = 0.2615 | 15.25 ± 0.21 | 0.01103 ± 0.00041
298.15 K, 384.8 kPa, x2 = 0.7502 | 15.02 ± 0.21 | 0.01212 ± 0.00044
298.15 K, 391.5 kPa, x2 = 0.5169 | 16.21 ± 0.21 | 0.01158 ± 0.00042
298.15 K, 406.4 kPa, x2 = 0.2615 | 17.6 ± 0.21 | 0.011 ± 0.00041
298.15 K, 453.1 kPa, x2 = 0.5169 | 19.06 ± 0.21 | 0.01157 ± 0.00042
298.15 K, 477.3 kPa, x2 = 0.7502 | 18.96 ± 0.21 | 0.0121 ± 0.00044
298.15 K, 571.3 kPa, x2 = 0.7502 | 23.23 ± 0.21 | 0.01209 ± 0.00044
323.15 K, 101.8 kPa, x2 = 0.2615 | 3.732 ± 0.2 | 0.01206 ± 0.00044
323.15 K, 102.2 kPa, x2 = 0.7502 | 3.468 ± 0.2 | 0.0132 ± 0.00046
323.15 K, 102.4 kPa, x2 = 0.2615 | 3.755 ± 0.2 | 0.01207 ± 0.00044
323.15 K, 103 kPa, x2 = 0.5169 | 3.663 ± 0.2 | 0.01262 ± 0.00045
323.15 K, 190 kPa, x2 = 0.5169 | 6.762 ± 0.2 | 0.01261 ± 0.00045
323.15 K, 199 kPa, x2 = 0.7502 | 6.842 ± 0.2 | 0.0132 ± 0.00046
323.15 K, 200 kPa, x2 = 0.2615 | 7.459 ± 0.2 | 0.01203 ± 0.00043
323.15 K, 276.2 kPa, x2 = 0.5169 | 10.03 ± 0.2 | 0.01259 ± 0.00045
323.15 K, 297.3 kPa, x2 = 0.7502 | 10.36 ± 0.2 | 0.01317 ± 0.00046
323.15 K, 299.4 kPa, x2 = 0.2615 | 11.38 ± 0.2 | 0.01201 ± 0.00043
323.15 K, 373.4 kPa, x2 = 0.5169 | 13.8 ± 0.2 | 0.01259 ± 0.00045
323.15 K, 396.6 kPa, x2 = 0.2615 | 15.36 ± 0.2 | 0.012 ± 0.00043
323.15 K, 398.7 kPa, x2 = 0.7502 | 14.09 ± 0.2 | 0.01318 ± 0.00046
323.15 K, 473.2 kPa, x2 = 0.5169 | 17.99 ± 0.2 | 0.01258 ± 0.00045
323.15 K, 492.9 kPa, x2 = 0.2615 | 19.48 ± 0.2 | 0.01199 ± 0.00043
323.15 K, 510 kPa, x2 = 0.7502 | 18.34 ± 0.2 | 0.0132 ± 0.00046
323.15 K, 575.5 kPa, x2 = 0.5169 | 22.07 ± 0.2 | 0.01257 ± 0.00045
323.15 K, 593.3 kPa, x2 = 0.2615 | 23.99 ± 0.21 | 0.01199 ± 0.00043
323.15 K, 618.1 kPa, x2 = 0.7502 | 22.66 ± 0.2 | 0.0132 ± 0.00046
323.15 K, 670.6 kPa, x2 = 0.5169 | 26.3 ± 0.2 | 0.01258 ± 0.00045
323.15 K, 687 kPa, x2 = 0.2615 | 28.43 ± 0.21 | 0.01202 ± 0.00043
323.15 K, 724.7 kPa, x2 = 0.7502 | 26.96 ± 0.2 | 0.01318 ± 0.00046
323.15 K, 771 kPa, x2 = 0.5169 | 30.74 ± 0.21 | 0.01259 ± 0.00045
323.15 K, 793.7 kPa, x2 = 0.2615 | 33.76 ± 0.21 | 0.01211 ± 0.00044
323.15 K, 828.4 kPa, x2 = 0.7502 | 31.41 ± 0.2 | 0.0132 ± 0.00046
323.15 K, 867.1 kPa, x2 = 0.5169 | 35.23 ± 0.21 | 0.0126 ± 0.00045
323.15 K, 937.9 kPa, x2 = 0.7502 | 36.25 ± 0.2 | 0.01322 ± 0.00046
348.15 K, 101.4 kPa, x2 = 0.5169 | 3.305 ± 0.21 | 0.01354 ± 0.00047
348.15 K, 101.6 kPa, x2 = 0.7502 | 3.189 ± 0.21 | 0.01427 ± 0.00049
348.15 K, 102.1 kPa, x2 = 0.2615 | 3.463 ± 0.21 | 0.01295 ± 0.00046
348.15 K, 198.6 kPa, x2 = 0.5169 | 6.548 ± 0.21 | 0.01355 ± 0.00047
348.15 K, 199 kPa, x2 = 0.2615 | 6.847 ± 0.21 | 0.01294 ± 0.00046
348.15 K, 200.7 kPa, x2 = 0.7502 | 6.368 ± 0.21 | 0.01423 ± 0.00049
348.15 K, 296.9 kPa, x2 = 0.2615 | 10.36 ± 0.21 | 0.01293 ± 0.00046
348.15 K, 344.3 kPa, x2 = 0.7502 | 11.09 ± 0.21 | 0.01422 ± 0.00049
348.15 K, 345.4 kPa, x2 = 0.5169 | 11.61 ± 0.21 | 0.01355 ± 0.00047
348.15 K, 446.2 kPa, x2 = 0.2615 | 15.92 ± 0.21 | 0.01294 ± 0.00046
348.15 K, 490.8 kPa, x2 = 0.5169 | 16.98 ± 0.21 | 0.01355 ± 0.00047
348.15 K, 490.8 kPa, x2 = 0.7502 | 16.07 ± 0.21 | 0.01424 ± 0.00049
348.15 K, 590.8 kPa, x2 = 0.2615 | 21.56 ± 0.21 | 0.01297 ± 0.00046
348.15 K, 637.2 kPa, x2 = 0.5169 | 22.25 ± 0.21 | 0.01354 ± 0.00047
348.15 K, 638.2 kPa, x2 = 0.7502 | 21.43 ± 0.21 | 0.01423 ± 0.00049
